# Reference: US7214663B2, “Tripeptide prodrug compounds” (Medarex, Inc., priority 2001, dated 2007)
# Non-standard residues stand in square brackets, D forms with d. Residues, ends and D or L forms follow the SMILES beside them. *: point of attachment. Daunorubicin = COc1cccc2c1C(=O)c1c(O)c3c(c(O)c1C2=O)C[C@@](O)(C(C)=O)C[C@@H]3O[C@H]1C[C@H](N*)[C@H](O)[C@H](C)O1; Sta = CC(C)C[C@H](N)[C@@H](O)CC(=O)O; pGlu = O=C1CC[C@@H](C(=O)O)N1; Isovaleryl = CC(C)CC(=O)*
# How the values were obtained:
# carcinoma cell trouase = assay: Inhibitor profile of carcinoma cell trouase; format: biochemical, human
# [1] = Metabolism and clearance of Suc-Leu-Ala-Leu-Dox in mice (plasma, urine); format: in vivo, mouse
# Method: Plasma samples of 100 μl were transferred to microcentrifuge tubes (1.5 mL) and an internal standard of daunorubicin (20 μL at 0.5 mg/ml) was added together with acetonitrile (400 μl). The tubes were capped and briefly vortexed followed by centrifugation at 14,000 rpm. 420 μl from each tube was removed and dried in vacuo. Each sample was reconstituted in 65 μl 20 mM aqueous ammonium formate (AF) pH 4.5 buffer containing acetonitrile (20%) prior to analysis by reverse phase liquid chromatography in combination with tandem mass spectrometry (LC MS/MS).
# Urine was collected at 2 and 24 hours post administration from pairs of mice in metabolic cages. Urine samples were diluted with AF buffer containing acetonitrile (20%) to give a target analyte concentration within the practical range of the LC MS/MS assay. 30 μl of each diluted sample was placed in a micro centrifuge tube (1.5 ml) and an internal standard of daunorubicin (20 μL at 0.5 mg/ml) was added together with 50 μl of AF buffer containing acetonitrile (20%). Each sample was then analyzed by LC MS/MS.
# An Agilent HP1100 HPLC with DAD detector and Chemstation software was coupled to a PE Sciex API 365 mass spectrometer with an electrospray ion source. HPLC was performed on a TSK-Gel Super ODS, […], 4.6×50 mm (TosoHaas) reversed phase column equipped with a […] C18 guard disc (Higgins Analytical) and stainless steel frit (Upchurch Scientific). Chromatography was performed at room temperature. The flow rate was 0.5 ml/min. Injection volume was 50 μl. Gradient elution was performed using a mobile phase of AF buffer with increasing amounts of acetonitrile. The API 365 was operated at 365° C. in a multiple reaction monitoring mode, set to monitor specific analyte parent-daughter ion pairs. Integration of chromatograms was performed by MacQuan software (PE Sciex) and quantitation of each analyte obtained by comparison to previously obtained calibration curves. Daunorubicin was used as an internal standard in all cases.
# [2] = Metabolism and clearance of Suc-Met-Ala-Leu-Dox in mice (plasma, urine); format: in vivo, mouse
# Method: Plasma samples were obtained at 1 or 4 hours, and urine was collected at 2 and 24 hours post administration. Levels of the prodrug and metabolites were measured by LC-MS with UV detection of doxorubicin.
# [3] = system: HeLa cell anion exchange fraction (F1), trouase; assay: Relative cleavage by HeLa cell anion exchange fraction (F1) versus Suc-βAla-Leu-Ala-Leu standard; format: biochemical, human; details: 2 hr at 37° C., 12.5 μg/mL, HeLa F1; relative to Suc-βAla-Leu-Ala-Leu-(Dox or Dnr) standard
# Method: Thirty billion commercially produced HeLa Cells (human cervical carcinoma, Computer Cell Culture Ceizter, Seneffe, Belgium) were homogenized with a sonicator and with a Dounce homogenizer in 108 mL of aqueous lysis solution. The lysis solution contained 0.02% w/v Triton X-100, 0.04% w/v sodium azide, and a cocktail of protease inhibitors (2 tablets/50 mL Complete™, EDTA-free tablets, Roche Molecular Biochemicals). The cell homogenate was centrifuged 30 minutes at 4° C. at 5000×g and the pellet was homogenized in a second 108 mL of lysis solution using a Dounce homogenizer and centrifuged as before. The supernatants were combined and centrifuged for 90 min at 145,000×g at 4° C.
# A portion of the ultracentrifugation supernatant was diluted 2-fold with a 20 mM triethanolamine-HCl pH 7.2 buffer containing 0.01% (w/v) Triton X-100 and 0.02% (w/v) sodium azide (equilibration buffer). Thirty mL of the resulting solution, corresponding to approximately 180 mg of protein, was loaded at 4° C. on a 2.6×9.4 cm Source™ 15Q (Amersham Pharmacia Biotech) low pressure anion exchange chromatography column (1 ml/minute). The column was then washed with 250 ml of the equilibration buffer at a flow rate of 1 mL/minute. Proteins were eluted in a NaCl linear concentration gradient (0–0.5 M in the equilibration buffer, total volume of the gradient was 1000 ml) at a flow rate of 3 ml/minute. Two-minute fractions were collected and used for enzyme activity determination using βAla-Leu-Ala-Leu-Dox as the substrate. Its transformation into Ala-Leu-Dox was quantified by reverse phase high performance liquid chromatography utilizing fluorescence detection of the anthracycline moiety. The fractions containing the highest activity levels were pooled (fractions #43–46; ˜0.13 M NaCl), supplemented with protease inhibitors (Complete™, EDTA-free tablets, Roche Molecular Biochemicals), and stored as aliquots at −80° C.
# Test compounds were incubated for 2 hr at 37° C. at a concentration of 12.5 μg/mL with HeLa cell anion exchange fraction (F1), as prepared in Example 1(c). Following incubation, three volumes of acetonitrile were added to stop the reaction and remove protein from the mixture. The sample was centrifuged at 18,000 g for 5 minutes and 100 μL of supernatant was mixed with 300 μL of water prior to analysis by HPLC. For HPLC analysis 50 μL of sample was injected on a 4.6×50 mm 2μ TSK Super-ODS chromatography column at 40° C. and eluted with a 3 minute linear gradient from 26% to 68% acetonitrile in aqueous 20 mM ammonium acetate pH 4.5 buffer at 2 mL/min. Detection was by fluorescence using an excitation wavelength of 235 nm and an emission wavelength of 560 nm.
# the amount of cleavage of each test compound was compared to the amount of a standard Suc-βAla-Leu-Ala-Leu-therapeutic agent conjugate cleaved by F1 under the same conditions. The therapeutic agent in the standard (Dox or Dnr) was the same as in the test compound. Table 3 provides the relative cleavage rates of several tripeptide prodrugs.
# in vivo = details: female, ICR, mouse, iv, 100 umol/kg
# Method: Plasma was obtained from three individual animals in each group at 5 minutes, 1, 2, 4, or 6 hr.
# [4] = after single intravenous 117 mg/kg Suc-Leu-Ala-Leu-Dox
# [5] = after single intravenous 120 mg/kg Suc-Met-Ala-Leu-Dox
molecule,measurement,setting,value
"c1cnc2c(c1)ccc1cccnc12 [1,10-phenanthroline]",inhibition of carcinoma cell trouase,carcinoma cell trouase,inhibited
COc1cccc2c1C(=O)c1c(O)c3c(c(O)c1C2=O)C[C@@](O)(C(=O)CO)C[C@@H]3O[C@H]1C[C@H](NC(=O)[C@H](CC(C)C)NC(=O)[C@H](C)N)[C@H](O)[C@H](C)O1 [Ala-Leu-Dox],"Plasma 1 hr, percent of administered dose","[1]; mouse, in vivo, iv, 117 mg/kg",0.006%
same,"Plasma 4 hr, percent of administered dose","[1]; mouse, in vivo, iv, 117 mg/kg",0.000%
same,"Urine 2 hr, percent of administered dose","[1]; mouse, in vivo, iv, 117 mg/kg",0.02%
same,"Urine 24 hr, percent of administered dose","[1]; mouse, in vivo, iv, 117 mg/kg",0.01%
same,"Plasma 1 hr, percent of administered dose","[2]; mouse, in vivo, iv, 120 mg/kg",0.002%
same,"Plasma 4 hr, percent of administered dose","[2]; mouse, in vivo, iv, 120 mg/kg",0.000%
same,"Urine 2 hr, percent of administered dose","[2]; mouse, in vivo, iv, 120 mg/kg",0.16%
same,"Urine 24 hr, percent of administered dose","[2]; mouse, in vivo, iv, 120 mg/kg",0.02%
CCCNC(=O)[C@H]1O[C@@H]1C(=O)N[C@H](C(=O)N1CCC[C@H]1C(=O)O)[C@@H](C)CC [CA074],inhibition of carcinoma cell trouase,carcinoma cell trouase,not
"CC(C)C[C@H](NC(=O)[C@H]1O[C@@H]1C(=O)O)C(=O)NCCCCN=C(N)N [Compound E64, E64]",inhibition of carcinoma cell trouase,carcinoma cell trouase,not
COc1cccc2c1C(=O)c1c(O)c3c(c(O)c1C2=O)C[C@@](O)(C(=O)CO)C[C@@H]3O[C@H]1C[C@H](NC(=O)[C@@H](N)CC(C)C)[C@H](O)[C@H](C)O1 [Leu-Dox],"Plasma 1 hr, percent of administered dose",[1]; [4],0.019%
same,"Plasma 4 hr, percent of administered dose",[1]; [4],0.001%
same,"Urine 2 hr, percent of administered dose",[1]; [4],1.53%
same,"Urine 24 hr, percent of administered dose",[1]; [4],0.45%
same,"Plasma 1 hr, percent of administered dose",[2]; [5],0.022%
same,"Plasma 4 hr, percent of administered dose",[2]; [5],0.001%
same,"Urine 2 hr, percent of administered dose",[2]; [5],7.28%
same,"Urine 24 hr, percent of administered dose",[2]; [5],1.25%
same,"plasma level, times higher than Ala-Leu-Dox",[2]; at both 1 and 4 hours after 120 mg/kg Suc-Met-Ala-Leu-Dox,about 10 times
COc1cccc2c1C(=O)c1c(O)c3c(c(O)c1C2=O)C[C@@](O)(C(C)=O)C[C@@H]3O[C@H]1C[C@H](NC(=O)[C@H](CC(C)C)NC(=O)[C@H](C)NC(=O)[C@H](CC(C)C)NC(=O)[C@@H]2CCC(=O)N2)[C@H](O)[C@H](C)O1 [Pyg-Leu-Ala-Leu-Dnr] ([pGlu]LAL-Daunorubicin),Relative Cleavage %,[3],76%
COc1cccc2c1C(=O)c1c(O)c3c(c(O)c1C2=O)C[C@@](O)(C(C)=O)C[C@@H]3O[C@H]1C[C@H](NC(=O)[C@H](CC(C)C)NC(=O)[C@H](C)NC(=O)[C@H](CC(C)C)NC(=O)CCC(=O)O)[C@H](O)[C@H](C)O1 [Suc-Leu-Ala-Leu-Dnr],Relative Cleavage %,[3],76%
COc1cccc2c1C(=O)c1c(O)c3c(c(O)c1C2=O)CC(O)(C(C)=O)CC3OC1CC(NC(=O)C(CC(C)C)NC(=O)C(C)NC(=O)C(CCSC)NC(=O)CCC(=O)O)C(O)C(C)O1 (stereo not drawn) [Suc-Met-Ala-Leu-Dnr],Relative Cleavage %,[3],69%
CCC(C)C(NC(=O)CNC(=O)C(CCSC)NC(=O)CCC(=O)O)C(=O)NC1CC(OC2CC(O)(C(C)=O)Cc3c(O)c4c(c(O)c32)C(=O)c2c(OC)cccc2C4=O)OC(C)C1O (stereo not drawn) [Suc-Met-Gly-Ile-Dnr],Relative Cleavage %,[3],46%
COc1cccc2c1C(=O)c1c(O)c3c(c(O)c1C2=O)CC(O)(C(C)=O)CC3OC1CC(NC(=O)C(CC(C)C)NC(=O)CNC(=O)C(CCSC)NC(=O)CCC(=O)O)C(O)C(C)O1 (stereo not drawn) [Suc-Met-Gly-Leu-Dnr],Relative Cleavage %,[3],55%
COc1cccc2c1C(=O)c1c(O)c3c(c(O)c1C2=O)C[C@@](O)(C(C)=O)C[C@@H]3O[C@H]1C[C@H](NC(=O)[C@H](Cc2ccccc2)NC(=O)CNC(=O)[C@H](CCSC)NC(=O)CCC(=O)O)[C@H](O)[C@H](C)O1 [Suc-Met-Gly-Phe-Dnr],Relative Cleavage %,[3],29%
CCCCC(NC(=O)CCC(=O)O)C(=O)NCC(=O)NC(Cc1ccccc1)C(=O)NC1CC(OC2CC(O)(C(C)=O)Cc3c(O)c4c(c(O)c32)C(=O)c2c(OC)cccc2C4=O)OC(C)C1O (stereo not drawn) [Suc-Nle-Gly-Phe-Dnr],Relative Cleavage %,[3],17%
CCC(C)C(NC(=O)CNC(=O)C(Cc1ccccc1)NC(=O)CCC(=O)O)C(=O)NC1CC(OC2CC(O)(C(C)=O)Cc3c(O)c4c(c(O)c32)C(=O)c2c(OC)cccc2C4=O)OC(C)C1O (stereo not drawn) [Suc-Phe-Gly-Ile-Dnr],Relative Cleavage %,[3],54%
COc1cccc2c1C(=O)c1c(O)c3c(c(O)c1C2=O)CC(O)(C(C)=O)CC3OC1CC(NC(=O)C(CC(C)C)NC(=O)CNC(=O)C(Cc2ccccc2)NC(=O)CCC(=O)O)C(O)C(C)O1 (stereo not drawn) [Suc-Phe-Gly-Leu-Dnr],Relative Cleavage %,[3],24%
COc1cccc2c1C(=O)c1c(O)c3c(c(O)c1C2=O)CC(O)(C(C)=O)CC3OC1CC(NC(=O)C(Cc2ccccc2)NC(=O)CNC(=O)C(Cc2ccccc2)NC(=O)CCC(=O)O)C(O)C(C)O1 (stereo not drawn) [Suc-Phe-Gly-Phe-Dnr],Relative Cleavage %,[3],12%
CCC(C)C(NC(=O)C(C)NC(=O)C(Cc1ccc(O)cc1)NC(=O)CCC(=O)O)C(=O)NC1CC(OC2CC(O)(C(C)=O)Cc3c(O)c4c(c(O)c32)C(=O)c2c(OC)cccc2C4=O)OC(C)C1O (stereo not drawn) [Suc-Tyr-Ala-Ile-Dnr],Relative Cleavage %,[3],25%
COc1cccc2c1C(=O)c1c(O)c3c(c(O)c1C2=O)CC(O)(C(C)=O)CC3OC1CC(NC(=O)C(CC(C)C)NC(=O)C(C)NC(=O)C(Cc2ccc(O)cc2)NC(=O)CCC(=O)O)C(O)C(C)O1 (stereo not drawn) [Suc-Tyr-Ala-Len-Dnr],Relative Cleavage %,[3],77%
CC[C@H](C)[C@H](NC(=O)CCNC(=O)CCC(=O)O)C(=O)N[C@@H](C)C(=O)N[C@@H](CC(C)C)C(=O)N[C@H]1C[C@H](O[C@H]2C[C@](O)(C(=O)CO)Cc3c(O)c4c(c(O)c32)C(=O)c2c(OC)cccc2C4=O)O[C@@H](C)[C@H]1O [Suc-βAla-Ile-Ala-Leu-Dox],AUC,in vivo,326 µM·h
[Zn+2] [Zn^2+],inhibition of hydrolysis of Suc-βAla-Leu-Ala-Leu-Dox by HeLa cell Fraction 1,carcinoma cell trouase; 100 μM,completely inhibits
CO[C@@H]1[C@H](OC(=O)/C=C/C=C/C=C/C=C/C(=O)O)CC[C@]2(CO2)[C@H]1[C@@]1(C)O[C@@H]1CC=C(C)C [fumagillin],inhibition of carcinoma cell trouase,carcinoma cell trouase,not
CC(=O)N[C@@H](CC(C)C)C(=O)N[C@@H](CC(C)C)C(=O)N[C@H](C=O)CCCNC(=N)N [leupeptin],inhibition of carcinoma cell trouase,carcinoma cell trouase,not
CC(C)CC(=O)N[C@H](C(=O)N[C@H](C(=O)N[C@@H](CC(C)C)[C@@H](O)CC(=O)N[C@@H](C)C(=O)N[C@@H](CC(C)C)[C@@H](O)CC(=O)O)C(C)C)C(C)C [pepstatin] (Isovaleryl-VV[Sta]A[Sta]-OH),inhibition of carcinoma cell trouase,carcinoma cell trouase,not
aminoethylbenzene-sufonate,inhibition of carcinoma cell trouase,carcinoma cell trouase,not
aprotinin,inhibition of carcinoma cell trouase,carcinoma cell trouase,not
